Results published in patent US20240343740A1, “MACROCYCLIC GLUCAGON-LIKE PEPTIDE 1 RECEPTOR AGONISTS” (Eli Lilly and Company, priority 2021, published 2024).

What was measured:
human GLP-1R [1] = target: T1, human GLP-1R (Homo sapiens, UniProt P43220); assay: Human GLP-1 Receptor HEK293 cell cAMP assay, 581 fmol/mg GLP-1R expression density; format: cell-based; parameters: expressed in transfected cells; host or cells: HEK293 clonal cell line; conditions: HEK293 cell line with 581 fmol/mg expression density of GLP-1R; for EC50: geometric mean, read-out: EC50 nM (SEM, n), intracellular cAMP response, relative EC50; for Emax: percent of maximal response to GLP-1(7-36)NH2, arithmetic mean, read-out: Emax % (SEM, n), intracellular cAMP response
T1 sequence (P43220 24-463): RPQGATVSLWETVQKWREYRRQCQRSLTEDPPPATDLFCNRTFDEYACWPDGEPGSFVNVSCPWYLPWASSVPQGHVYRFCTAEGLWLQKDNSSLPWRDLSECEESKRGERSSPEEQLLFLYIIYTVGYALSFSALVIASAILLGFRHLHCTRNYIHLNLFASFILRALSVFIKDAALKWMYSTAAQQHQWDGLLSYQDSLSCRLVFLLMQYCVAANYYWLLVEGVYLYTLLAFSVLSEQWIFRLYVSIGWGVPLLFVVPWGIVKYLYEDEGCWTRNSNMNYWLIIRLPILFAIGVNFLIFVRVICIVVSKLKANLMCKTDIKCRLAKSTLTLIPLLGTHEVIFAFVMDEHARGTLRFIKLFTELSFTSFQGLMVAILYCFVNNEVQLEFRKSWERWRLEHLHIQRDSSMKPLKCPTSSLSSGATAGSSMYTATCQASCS
Description: (§1) Human GLP-1 Receptor HEK293 Cell cAMP Assay
(§2) GLP-1 Receptor functional activity is determined using cAMP formation in an HEK293 clonal cell line expressing human GLP-1R (NCBI accession number NP_002053) at an expression density of 581±94 (n=6) and 104±12 (n=5) fmol/mg protein (determined using [^125I]GLP-1(7-36)NH2 homologous competition binding analysis). The hGLP-1R receptor expressing cells are treated with compound (20 point concentration-response curve in DMSO, 2.75-fold Labcyte Echo direct dilution, 384 well plate Corning Cat #3570) in DMEM (Gibco Cat #31053) supplemented with 1× GlutaMAX™ (Gibco Cat #35050), 0.1% bovine casein (Sigma C4765-10ML), 250 μM IBMX (3-Isobutyl-1-methylxanthine, Acros Cat #228420010) and 20 mM HEPES (Gibco Cat #15630) in a 20 μL assay volume (final DMSO concentration is 0.5%). After a 30 min incubation at 37° C., the resulting increase in intracellular cAMP is quantitatively determined using the CisBio cAMP Dynamic 2 HTRF Assay Kit (62AM4PEJ). Briefly, cAMP levels within the cell are detected by adding the cAMP-d2 conjugate in cell lysis buffer (10 μL) followed by the antibody anti-cAMP-Eu^3+-Cryptate, also in cell lysis buffer (10 μL). The resulting competitive assay is incubated for at least 60 min at RT, then detected using a PerkinElmer Envision® instrument with excitation at 320 nm and emission at 665 nm and 620 nm. Envision units (emission at 665 nm/620 nm*10,000) are inversely proportional to the amount of cAMP present and are converted to nM cAMP per well using a cAMP standard curve. The amount of cAMP generated (nM) in each well is converted to a percent of the maximal response observed with human GLP-1(7-36)NH2. A relative EC50 value and percent top (Emax) are derived by non-linear regression analysis using the percent maximal response vs. the concentration of compound added, fitted to a four-parameter logistic equation.

human GLP-1R [2] = target: T1, human GLP-1R; assay: Human GLP-1 Receptor HEK293 cell cAMP assay, 104 fmol/mg GLP-1R expression density; format: cell-based; parameters: expressed in transfected cells; host or cells: HEK293 clonal cell line; conditions: HEK293 cell line with 104 fmol/mg expression density of GLP-1R; for EC50: geometric mean, read-out: EC50 nM (SEM, n), intracellular cAMP response, relative EC50; for Emax: percent of maximal response to GLP-1(7-36)NH2, arithmetic mean, read-out: Emax % (SEM, n), intracellular cAMP response
Description: as §1, §2

Row | Structure (SMILES) | EC50 (human GLP-1R [1]) [nM] | Emax (human GLP-1R [1]) [%] | EC50 (human GLP-1R [2]) [nM] | Emax (human GLP-1R [2]) [%]
1 | COCCOc1cc(C(=O)O)cc2c1nc(Cc1cc(F)c3cc1COCCc1cc(C#N)cc(F)c1COc1cccc-3n1)n2C[C@@H]1CCO1 [Example 70, (S)-2-((5^4-Cyano-1^6,5^6-difluoro-3,8-dioxa-2(2,6)-pyridina-1(1,3),5(1,2)-dibenzenacyclononaphane-1^4-yl)methyl)-4-(2-methoxyethoxy)-1-(oxetan-2-ylmethyl)-1H-benzo[d]imidazole-6-carboxylic acid] | 3.11 | 92.3 | 12.6 | 95
2 | O=C(O)c1ccc2nc(Cc3ccc4cc3OCCCc3cc(-c5cn[nH]c5)ccc3COc3cccc-4n3)n(C[C@@H]3CCO3)c2c1 [Example 30, (S)-2-((5^4-(1H-Pyrazol-4-yl)-3,9-dioxa-2(2,6)-pyridina-1(1,3),5(1,2)-dibenzenacyclononaphane-1^4-yl)methyl)-1-(oxetan-2-ylmethyl)-1H-benzo[d]imidazole-6-carboxylic acid] | 35.6 | 98.1 | 118 | 77.1
3 | CNC(=O)c1ccc(-c2ccc3c(c2)CCCOc2cc(ccc2Cc2nc4ccc(C(=O)O)cc4n2C[C@@H]2CCO2)-c2cccc(n2)OC3)cc1 [Example 38, (S)-2-((5^4-(4-(Methylcarbamoyl)phenyl)-3,9-dioxa-2(2,6)-pyridina-1(1,3),5(1,2)-dibenzenacyclononaphane-1^4-yl)methyl)-1-(oxetan-2-ylmethyl)-1H-benzo[d]imidazole-6-carboxylic acid] | 300 | 90.1 | 613 | 56.9
4 | COc1ccc(-c2ccc3c(c2)CCCOc2cc(ccc2Cc2nc4ccc(C(=O)O)cc4n2C[C@@H]2CCO2)-c2cccc(n2)OC3)cn1 [Example 29, (S)-2-((5^4-(6-Methoxypyridin-3-yl)-3,9-dioxa-2(2,6)-pyridina-1(1,3),5(1,2)-dibenzenacyclononaphane-1^4-yl)methyl)-1-(oxetan-2-ylmethyl)-1H-benzo[d]imidazole-6-carboxylic acid] | 262 | 92.4 | 562 | 59.2
5 | COCCOc1cc(C(=O)O)cc2c1nc(Cc1ccc3cc1OCCCc1cc(C#N)ccc1COc1cccc-3n1)n2C[C@@H]1CCO1 [Example 24, (S)-2-((5^4-Cyano-3,9-dioxa-2(2,6)-pyridina-1(1,3),5(1,2)-dibenzenacyclononaphane-1^4-yl)methyl)-4-(2-methoxyethoxy)-1-(oxetan-2-ylmethyl)-1H-benzo[d]imidazole-6-carboxylic acid] | 2.34 | 116 | 6.6 | 89.6
6 | O=C(O)c1ccc2nc(Cc3ccc4cc3OCCCc3cc(-c5cnn(C6CC6)c5)ccc3COc3cccc-4n3)n(C[C@@H]3CCO3)c2c1 [Example 35, (S)-2-((5^4-(1-Cyclopropyl-1H-pyrazol-4-yl)-3,9-dioxa-2(2,6)-pyridina-1(1,3),5(1,2)-dibenzenacyclononaphane-1^4-yl)methyl)-1-(oxetan-2-ylmethyl)-1H-benzo[d]imidazole-6-carboxylic acid] | 95.8 | 112 | 385 | 88.1
7 | Cn1cc(-c2ccc3c(c2)CCCOc2cc(ccc2Cc2nc4ccc(C(=O)O)cc4n2C[C@@H]2CCO2)-c2cccc(n2)OC3)ccc1=O [Example 36, (S)-2-((5^4-(1-Methyl-6-oxo-1,6-dihydropyridin-3-yl)-3,9-dioxa-2(2,6)-pyridina-1(1,3),5(1,2)-dibenzenacyclononaphane-1^4-yl)methyl)-1-(oxetan-2-ylmethyl)-1H-benzo[d]imidazole-6-carboxylic acid] | 44 | 108 | 149 | 80
8 | O=C(O)c1ccc2nc(Cc3ccc4cc3OCCCc3cc(-c5ccc(=O)[nH]c5)ccc3COc3cccc-4n3)n(C[C@@H]3CCO3)c2c1 [Example 80, (S)-1-(Oxetan-2-ylmethyl)-2-((5^4-(6-oxo-1,6-dihydropyridin-3-yl)-3,9-dioxa-2(2,6)-pyridina-1(1,3),5(1,2)-dibenzenacyclononaphane-1^4-yl)methyl)-1H-benzo[d]imidazole-6-carboxylic acid] | 130 | 84.1 | 303 | 56
9 | O=C(O)c1ccc2nc(Cc3ccc4cc3OCCCc3cc(-n5ccnc5)ccc3COc3cccc-4n3)n(C[C@@H]3CCO3)c2c1 [Example 73, (S)-2-((5^4-(1H-Imidazol-1-yl)-3,9-dioxa-2(2,6)-pyridina-1(1,3),5(1,2)-dibenzenacyclononaphane-1^4-yl)methyl)-1-(oxetan-2-ylmethyl)-1H-benzo[d]imidazole-6-carboxylic acid] | 21.3 | 106 | 68.5 | 84.1
10 | COc1cc(C(=O)O)cc2c1nc(Cc1cc(F)c3cc1CCOCc1cc(C#N)ccc1COc1cccc-3n1)n2C[C@@H]1CCO1 [Example 44, (S)-2-((5^4-Cyano-1^6-fluoro-3,7-dioxa-2(2,6)-pyridina-1(1,3),5(1,2)-dibenzenacyclononaphane-1^4-yl)methyl)-4-methoxy-1-(oxetan-2-ylmethyl)-1H-benzo[d]imidazole-6-carboxylic acid] | 4.14 | 112 | 16.4 | 85.5
11 | COCCOc1cc(C(=O)O)cc2c1nc(Cc1cc(F)c3cc1COCc1cc(-c4ccc(=O)n(C)c4)ccc1COc1cccc-3n1)n2C[C@@H]1CCO1 [Example 75, (S)-2-((1^6-Fluoro-5^4-(1-methyl-6-oxo-1,6-dihydropyridin-3-yl)-3,7-dioxa-2(2,6)-pyridina-1(1,3),5(1,2)-dibenzenacyclooctaphane-1^4-yl)methyl)-4-(2-methoxyethoxy)-1-(oxetan-2-ylmethyl)-1H-benzo[d]imidazole-6-carboxylic acid] | 6.33 | 93.9 | 17.4 | 71.6
12 | CCn1cncc1Cn1c(Cc2ccc3cc2OCCCc2cc(C#N)ccc2COc2cccc-3n2)nc2c(OC)cc(C(=O)O)cc21 [Example 63, 2-((5^4-Cyano-3,9-dioxa-2(2,6)-pyridina-1(1,3),5(1,2)-dibenzenacyclononaphane-1^4-yl)methyl)-1-((1-ethyl-1H-imidazol-5-yl)methyl)-4-methoxy-1H-benzo[d]imidazole-6-carboxylic acid] | 29.9 | 101 | 112 | 81.1
13 | N#Cc1ccc2cc1CCCOc1cc(c(F)cc1Cc1nc3ccc(C(=O)O)cc3n1C[C@@H]1CCO1)-c1cccc(n1)OC2 [Example 10, (S)-2-((5^4-Cyano-1^6-fluoro-3,9-dioxa-2(2,6)-pyridina-1,5(1,3)-dibenzenacyclononaphane-1^4-yl)methyl)-1-(oxetan-2-ylmethyl)-1H-benzo[d]imidazole-6-carboxylic acid] | 35.3 | 107 | 147 | 88.9
14 | COCCOc1cc(C(=O)O)cc2c1nc(Cc1cc(F)c3cc1CCOCc1cc(ccc1C#N)COc1cccc-3n1)n2C[C@@H]1CCO1 [Example 48, (S)-2-((5^4-Cyano-1^6-fluoro-3,7-dioxa-2(2,6)-pyridina-1,5(1,3)-dibenzenacyclononaphane-1^4-yl)methyl)-4-(2-methoxyethoxy)-1-(oxetan-2-ylmethyl)-1H-benzo[d]imidazole-6-carboxylic acid] | 11.2 | 108 | 31.5 | 86.8
15 | Cn1ncc(-c2ccc3c(c2)CCCOc2cc(ccc2Cc2nc4ccc(C(=O)O)cc4n2C[C@@H]2CCO2)-c2cccc(n2)OC3)n1 [Example 32, (S)-2-((5^4-(2-Methyl-2H-1,2,3-triazol-4-yl)-3,9-dioxa-2(2,6)-pyridina-1(1,3),5(1,2)-dibenzenacyclononaphane-1^4-yl)methyl)-1-(oxetan-2-ylmethyl)-1H-benzo[d]imidazole-6-carboxylic acid] | 178 | 98.9 | 530 | 70.9
